These results are taken from ChEMBL document CHEMBL2016549, “Bioconversion of silybin to phase I and II microbial metabolites with retained antioxidant activity” (Bioorg Med Chem, 2012).

pIC50: −log10 of the molar value.

In assay [1] the test system is Radical scavenging activity. Briefly: Antioxidant activity assessed as DPPH radical scavenging activity by densitometric analysis. The format is functional. On the technique in general: The DPPH test is a chemical assay of radical scavenging.
Assay [2] has as its system Radical scavenging activity. Put plainly: Antioxidant activity assessed as DPPH radical scavenging activity by densitometric analysis relative to ascorbic acid. Format: functional.

On to `COc1cc(C2Oc3cc([C@H]4Oc5cc(O)cc(O)c5C(=O)[C@@H]4O)ccc3OC2CO)ccc1O` (mixture of isomers) [SILIBININ], for which the negative logarithm of the IC50 (pIC50) in assay [1] was 3.55.

Turning to `COc1cc(C2Oc3cc([C@H]4Oc5c(O)c(O)cc(O)c5C(=O)[C@@H]4O)ccc3OC2CO)ccc1O` (mixture of isomers), the Activity in assay [2] came out at 25%. For the same compound, the pIC50 in assay [1] is 4.52.

Consider `COc1cc(C2Oc3cc([C@H]4Oc5cc(OS(=O)(=O)O)cc(O)c5C(=O)[C@@H]4O)ccc3OC2CO)ccc1O` (mixture of isomers), for which the pIC50 in assay [1] was 3.08.

On to `O=C1O[C@H]([C@@H](O)CO)C(O)=C1O` [ASCORBIC ACID], for which the negative-log IC50 (pIC50) in assay [1] was 5.11.

On to `COc1cc(C2Oc3cc(-c4oc5cc(OS(=O)(=O)O)cc(O)c5c(=O)c4O)ccc3OC2CO)ccc1O` (mixture of isomers), for which the negative-log IC50 (pIC50) in assay [1] was 4.00.

The pIC50 is −log10 of the IC50, conventionally taken in molar units.
